Laboratory results from the supplement of paper PMC12463676, “Small-molecule dissolution of stress granules by redox modulation benefits ALS models” (Nature Chemical Biology, 2025).

Tests used:
[1] = compound: NC(=O)CCCCC1CCSS1 [lipoamide]; test: thermal stability z-score vs DMSO; higher = more thermally stabilized by treatment; details: HeLa, lipoamide concentration 100 µM
Procedure: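 Cellular thermal proteome profiling in HeLa cells. Cells were treated with 100 µM lipoamide for 1 h, with or without 1 mM arsenate for a further 1 h, then heated to ten temperatures (37-66.3 °C), and soluble protein was quantified by TMT mass spectrometry relative to 0.1% DMSO controls. The thermal stability score (sum of log2 fold changes minus the abundance score) was transformed to a z-score; mean of n = 3 experiments.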

[2] = compound: O=[As]([O-])(O)O.[K+] [potassium arsenate]; test: as above; details: HeLa; arsenate concentration 1 mM
Procedure: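 Cellular thermal proteome profiling in HeLa cells treated with 1 mM arsenate for 1 h (DMSO pretreatment), heated to ten temperatures (37-66.3 °C). Soluble protein was quantified by TMT mass spectrometry relative to DMSO controls; the thermal stability score was transformed to a z-score; mean of n = 3 experiments.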

[3] = arsenate co-treatment: 1 mM arsenate 1 h
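Note: each temperature applied for 3 min, abundance score taken as mean log2 fold change at the two lowest temperatures, z-score obtained by mean subtraction and division by SD.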

Sequence of UniProt Q5VW32 (Q5VW32 whole entry): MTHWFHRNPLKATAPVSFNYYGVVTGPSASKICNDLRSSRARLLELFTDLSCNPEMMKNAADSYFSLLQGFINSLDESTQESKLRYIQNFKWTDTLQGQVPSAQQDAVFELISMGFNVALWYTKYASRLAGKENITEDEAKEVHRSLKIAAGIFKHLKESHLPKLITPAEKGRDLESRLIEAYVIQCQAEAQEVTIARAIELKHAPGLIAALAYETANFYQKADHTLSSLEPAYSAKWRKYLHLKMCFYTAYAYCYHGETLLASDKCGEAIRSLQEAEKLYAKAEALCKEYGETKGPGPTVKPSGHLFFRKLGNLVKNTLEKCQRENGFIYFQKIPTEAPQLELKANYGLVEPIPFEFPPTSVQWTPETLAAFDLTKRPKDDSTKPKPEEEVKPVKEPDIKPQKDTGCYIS
Sequence of UniProt Q9H773 (Q9H773 whole entry): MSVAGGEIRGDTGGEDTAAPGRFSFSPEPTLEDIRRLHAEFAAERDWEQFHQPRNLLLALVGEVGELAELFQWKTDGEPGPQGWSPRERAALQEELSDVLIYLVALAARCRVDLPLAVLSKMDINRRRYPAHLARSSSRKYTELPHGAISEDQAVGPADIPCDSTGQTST
Sequence of UniProt P16278 (P16278 whole entry): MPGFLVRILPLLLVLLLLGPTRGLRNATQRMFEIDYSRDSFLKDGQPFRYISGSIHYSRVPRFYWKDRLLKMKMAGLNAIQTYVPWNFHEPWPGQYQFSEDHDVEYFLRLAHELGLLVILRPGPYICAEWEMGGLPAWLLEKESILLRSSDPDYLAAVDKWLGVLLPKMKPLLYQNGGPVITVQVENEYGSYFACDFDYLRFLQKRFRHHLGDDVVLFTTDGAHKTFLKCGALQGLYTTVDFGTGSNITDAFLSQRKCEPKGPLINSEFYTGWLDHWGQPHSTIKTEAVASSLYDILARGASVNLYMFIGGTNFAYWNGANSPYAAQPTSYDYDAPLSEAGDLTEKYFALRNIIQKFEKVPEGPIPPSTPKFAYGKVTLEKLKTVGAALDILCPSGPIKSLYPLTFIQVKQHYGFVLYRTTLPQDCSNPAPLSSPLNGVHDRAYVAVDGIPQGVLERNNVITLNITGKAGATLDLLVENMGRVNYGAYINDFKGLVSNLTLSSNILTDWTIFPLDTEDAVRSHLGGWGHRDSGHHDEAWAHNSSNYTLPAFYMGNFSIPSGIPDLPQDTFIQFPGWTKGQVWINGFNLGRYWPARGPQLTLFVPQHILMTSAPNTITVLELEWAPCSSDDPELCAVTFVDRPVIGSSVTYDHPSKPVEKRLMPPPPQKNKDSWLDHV
Sequence of UniProt Q13444 (Q13444 whole entry): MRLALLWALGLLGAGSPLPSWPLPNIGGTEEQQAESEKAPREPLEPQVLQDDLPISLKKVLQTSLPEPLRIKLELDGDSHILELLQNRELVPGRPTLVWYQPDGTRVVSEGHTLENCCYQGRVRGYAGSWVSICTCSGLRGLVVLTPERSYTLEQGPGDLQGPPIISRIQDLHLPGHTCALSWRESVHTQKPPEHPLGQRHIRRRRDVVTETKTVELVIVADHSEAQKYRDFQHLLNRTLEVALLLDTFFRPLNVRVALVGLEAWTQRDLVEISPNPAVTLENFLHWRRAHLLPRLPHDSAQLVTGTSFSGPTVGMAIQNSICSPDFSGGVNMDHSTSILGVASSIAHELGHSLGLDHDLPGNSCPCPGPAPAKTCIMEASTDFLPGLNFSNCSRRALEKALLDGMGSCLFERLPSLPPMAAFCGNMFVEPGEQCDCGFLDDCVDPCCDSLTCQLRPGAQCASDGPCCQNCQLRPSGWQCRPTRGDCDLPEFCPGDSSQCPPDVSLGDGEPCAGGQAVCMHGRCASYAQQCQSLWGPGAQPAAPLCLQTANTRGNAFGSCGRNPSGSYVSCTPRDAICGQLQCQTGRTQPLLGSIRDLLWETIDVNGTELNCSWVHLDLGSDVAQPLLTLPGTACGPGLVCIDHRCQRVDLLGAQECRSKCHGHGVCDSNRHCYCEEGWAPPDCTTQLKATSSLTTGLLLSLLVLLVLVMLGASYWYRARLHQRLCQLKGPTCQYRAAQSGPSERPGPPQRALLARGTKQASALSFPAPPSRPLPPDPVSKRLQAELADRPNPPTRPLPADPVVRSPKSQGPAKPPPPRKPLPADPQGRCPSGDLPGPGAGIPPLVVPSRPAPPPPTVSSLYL
Sequence of UniProt Q9H446 (Q9H446 whole entry): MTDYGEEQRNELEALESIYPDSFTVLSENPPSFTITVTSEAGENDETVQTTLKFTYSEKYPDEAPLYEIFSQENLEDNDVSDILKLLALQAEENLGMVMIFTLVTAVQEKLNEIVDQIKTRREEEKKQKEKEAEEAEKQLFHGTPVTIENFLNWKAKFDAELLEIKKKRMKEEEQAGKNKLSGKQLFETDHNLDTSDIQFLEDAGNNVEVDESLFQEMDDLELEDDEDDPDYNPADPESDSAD
Sequence of UniProt Q8IZP9 (Q8IZP9 whole entry): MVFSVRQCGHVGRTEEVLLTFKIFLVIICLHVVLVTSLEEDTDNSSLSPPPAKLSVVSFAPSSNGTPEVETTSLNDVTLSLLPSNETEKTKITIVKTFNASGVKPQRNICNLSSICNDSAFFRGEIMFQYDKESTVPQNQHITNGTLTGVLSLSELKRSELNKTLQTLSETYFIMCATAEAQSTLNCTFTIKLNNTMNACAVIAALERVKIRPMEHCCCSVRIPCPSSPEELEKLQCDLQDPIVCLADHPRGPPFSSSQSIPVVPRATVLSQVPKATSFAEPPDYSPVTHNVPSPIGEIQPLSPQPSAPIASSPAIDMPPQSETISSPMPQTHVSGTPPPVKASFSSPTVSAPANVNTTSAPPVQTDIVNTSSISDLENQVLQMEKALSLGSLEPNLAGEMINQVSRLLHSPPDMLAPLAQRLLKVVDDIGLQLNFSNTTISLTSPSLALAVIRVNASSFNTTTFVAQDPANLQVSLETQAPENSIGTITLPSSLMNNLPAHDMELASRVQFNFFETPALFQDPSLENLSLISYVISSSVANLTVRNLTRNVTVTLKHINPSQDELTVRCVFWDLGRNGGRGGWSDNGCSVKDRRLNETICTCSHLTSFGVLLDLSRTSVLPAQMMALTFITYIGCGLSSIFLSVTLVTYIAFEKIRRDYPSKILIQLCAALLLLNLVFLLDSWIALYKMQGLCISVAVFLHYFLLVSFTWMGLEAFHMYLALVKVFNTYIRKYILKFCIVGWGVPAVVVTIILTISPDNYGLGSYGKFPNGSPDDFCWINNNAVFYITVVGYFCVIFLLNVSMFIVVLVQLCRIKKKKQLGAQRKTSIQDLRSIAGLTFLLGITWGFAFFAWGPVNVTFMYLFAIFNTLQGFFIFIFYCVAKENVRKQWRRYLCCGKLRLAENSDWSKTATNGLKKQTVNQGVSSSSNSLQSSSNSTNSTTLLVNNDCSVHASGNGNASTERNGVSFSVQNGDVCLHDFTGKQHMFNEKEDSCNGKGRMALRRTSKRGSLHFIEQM
Sequence of UniProt Q969Z0 (Q969Z0 whole entry): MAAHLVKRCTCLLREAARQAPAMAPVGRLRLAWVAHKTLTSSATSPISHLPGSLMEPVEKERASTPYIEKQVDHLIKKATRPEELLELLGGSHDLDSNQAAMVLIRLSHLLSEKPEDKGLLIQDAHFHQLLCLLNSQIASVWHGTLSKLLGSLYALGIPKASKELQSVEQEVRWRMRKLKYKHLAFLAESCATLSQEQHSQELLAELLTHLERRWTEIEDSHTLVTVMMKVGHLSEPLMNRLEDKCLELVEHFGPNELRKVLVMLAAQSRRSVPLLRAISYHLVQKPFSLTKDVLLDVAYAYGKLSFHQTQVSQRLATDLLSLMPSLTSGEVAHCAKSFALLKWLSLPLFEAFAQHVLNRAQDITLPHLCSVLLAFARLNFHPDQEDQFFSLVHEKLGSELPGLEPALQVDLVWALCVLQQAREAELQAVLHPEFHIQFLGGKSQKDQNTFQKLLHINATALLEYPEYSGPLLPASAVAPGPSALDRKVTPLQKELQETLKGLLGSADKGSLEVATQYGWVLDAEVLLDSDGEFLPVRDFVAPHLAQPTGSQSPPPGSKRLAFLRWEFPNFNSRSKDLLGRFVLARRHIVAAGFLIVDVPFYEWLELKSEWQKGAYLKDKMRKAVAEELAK
Sequence of UniProt Q9UNN8 (Q9UNN8 whole entry): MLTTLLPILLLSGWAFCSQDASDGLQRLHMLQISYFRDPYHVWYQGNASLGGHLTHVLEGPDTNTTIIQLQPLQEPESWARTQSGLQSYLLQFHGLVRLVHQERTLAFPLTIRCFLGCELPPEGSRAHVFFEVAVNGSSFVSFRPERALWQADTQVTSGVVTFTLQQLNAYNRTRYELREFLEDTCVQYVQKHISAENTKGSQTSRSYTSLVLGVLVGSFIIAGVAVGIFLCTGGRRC
Sequence of UniProt Q13952 (Q13952 whole entry): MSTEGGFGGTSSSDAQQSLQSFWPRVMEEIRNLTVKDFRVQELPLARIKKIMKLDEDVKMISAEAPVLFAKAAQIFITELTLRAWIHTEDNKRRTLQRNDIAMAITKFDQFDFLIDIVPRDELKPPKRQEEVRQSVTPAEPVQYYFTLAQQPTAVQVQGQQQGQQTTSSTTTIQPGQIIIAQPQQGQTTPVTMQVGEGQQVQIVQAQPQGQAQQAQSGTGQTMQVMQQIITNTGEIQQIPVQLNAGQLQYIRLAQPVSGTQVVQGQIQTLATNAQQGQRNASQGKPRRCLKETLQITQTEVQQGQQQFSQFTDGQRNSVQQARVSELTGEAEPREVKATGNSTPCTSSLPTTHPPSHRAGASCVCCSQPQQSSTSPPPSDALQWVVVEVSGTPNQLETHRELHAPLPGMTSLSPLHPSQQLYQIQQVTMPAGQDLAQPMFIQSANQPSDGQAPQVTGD
Sequence of UniProt P56556 (P56556 whole entry): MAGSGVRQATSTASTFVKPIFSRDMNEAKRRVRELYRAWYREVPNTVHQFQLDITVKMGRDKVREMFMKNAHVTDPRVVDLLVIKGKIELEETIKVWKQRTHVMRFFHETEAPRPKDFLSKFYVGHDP
Sequence of UniProt Q5JS54 (Q5JS54 whole entry): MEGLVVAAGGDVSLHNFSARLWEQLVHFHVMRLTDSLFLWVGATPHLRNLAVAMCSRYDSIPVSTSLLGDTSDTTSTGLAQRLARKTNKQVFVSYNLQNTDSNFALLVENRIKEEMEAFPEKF

Row | Target | thermal stability z-score [1, 3] | thermal stability z-score ([1]; arsenate co-treatment: none) | thermal stability z-score [2]
1 | RWDD1 (UniProt Q9H446) | 0.432 | 0.421 | 0.471
2 | AKT2 (UniProt P31751) | 0.466 | -0.00865 | -0.0952
3 | BROX (UniProt Q5VW32) | 1.03 | 1.02 | -0.0457
4 | ADGRG2 (UniProt Q8IZP9) | -0.0216 | 0.386 | -0.592
5 | THTPA (UniProt Q9BU02) | 0.32 | -0.0368 | 0.53
6 | GLB1 (UniProt P16278) | -0.564 | -0.0527 | -0.438
7 | NOTCH1 (UniProt P46531) | 0.143 | 0.13 | -0.0336
8 | WDR82 (UniProt Q6UXN9) | 0.88 | -0.211 | -0.75
9 | TBRG4 (UniProt Q969Z0) | -0.625 | -0.116 | 0.462
10 | ITGA2 (UniProt P17301) | 0.217 | 0.235 | 0.278
11 | ACTR5 (UniProt Q9H9F9) | -0.0353 | -0.0633 | -0.0841
12 | AQR (UniProt O60306) | 0.37 | 0.297 | -0.643
13 | LRRC8E (UniProt Q6NSJ5) | 0.43 | -0.139 | -0.237
14 | PSMG4 (UniProt Q5JS54) | -1.42 | -1.53 | -1.38
15 | NFYC (UniProt Q13952) | 0.024 | 0.385 | -0.0961
16 | CHD4 (UniProt Q14839) | 0.305 | 0.561 | -0.759
17 | RABL6 (UniProt Q3YEC7) | -0.678 | -0.754 | -0.246
18 | GCC1 (UniProt Q96CN9) | -0.192 | -0.169 | -0.179
19 | ECE1 (UniProt P42892) | -0.298 | -0.225 | -0.191
20 | PROCR (UniProt Q9UNN8) | 1.19 | 0.359 | 1.04
21 | RRP1B (UniProt Q14684) | 0.131 | 0.133 | -0.0634
22 | FASN (UniProt P49327) | 0.217 | 0.252 | -1.1
23 | CLSTN1 (UniProt O94985) | -0.443 | 0.255 | 1.06
24 | ADAM15 (UniProt Q13444) | -1.37 | -1.49 | -0.1
25 | DCTPP1 (UniProt Q9H773) | 1.22 | 0.682 | 0.499
26 | IGSF8 (UniProt Q969P0) | 0.26 | 0.326 | 0.893
27 | NDUFA6 (UniProt P56556) | -0.164 | -0.00891 | 0.505
28 | ACSL3 (UniProt O95573) | -0.87 | -0.498 | -0.39
